{
  "source": "paper PMC7269146",
  "about": "“Jingzhaotoxin-X, a gating modifier of Kv4.2 and Kv4.3 potassium channels purified from the venom of the Chinese tarantula Chilobrachys jingzhao” (The Journal of Venomous Animals and Toxins Including …, 2020)",
  "key": {"[1]": {"experiment": "rotarod performance test in mice", "format": "in vivo, mouse (male C57BL/6)", "conditions": "40 nmol/kg, n = 8; for time on accelerating rotarod: 1 h following treatment, cutoff 300 s", "method": "In the present study, male C57BL/6 mice weighing 20-25 g were utilized. This study was performed following the Guide for the Care and Use of Laboratory Animals released by the United States National Institutes of Health (US NIH). Our study protocol was approved by the Animal Experiments Ethics Committee at Central Southern University (No. 2018-2-6). Each operation was performed under isoflurane-induced anesthesia to reduce pain and minimize animal suffering. Lumbar puncture was also conducted for intrathecal injection, as described previously. Next, the effect of JZTX-X on nociception was evaluated by assessing the behaviors during the mechanical hyperalgesia process. The JZTX-X-induced mechanical hyperalgesia was investigated by two experiments via various administration routes, including intrathecal and intraplantar injections. Then, animals were challenged via intrathecal (10 µL) or intraplantar (20 µL) injection of JZTX-X (40 nmol/kg). The control group was given a physiological solution, which contained 0.9% NaCl, […].\nA rotarod accelerator treadmill (Med Associates Inc., St. Albans, VT) was utilized for rotarod performance tests, so as to determine […] motor function as previously described. Motor learning was also carried out by rotarod tests for evaluating the mice’s capacity to stay on the accelerating rotating drum. In JZTX-X- and saline- groups, all animals were acclimated for 30 min within the testing room, and placed for 300 s onto the rotarod that accelerated from 4 to 40 rpm. In addition, the latency time for animals falling from the rod was calculated before and after toxin injection, from the beginning of acceleration to falling onto the drum, and the maximum cutoff time was 300 s."}, "[2]": {"tested_on": "Kv2.1", "experiment": "microelectrode voltage-clamp, Xenopus laevis oocytes, Kv2.1", "format": "cell-based", "conditions": "10 μM, 300-ms depolarization to +20 mV from -90 mV, pH 7.5, 19-23°C, n = 3", "method": "(§1) Briefly, plasmids were linearized, and transcription was carried out according to the standardized protocol. Afterwards, the capped cRNAs that encoded the related ion channels were prepared. To conduct transcription in vitro, firstly, NotL was utilized to linearize plasmids pCI that contained both Kv1.1 (Accession: NM_010595.3) and Kv2.1 (Accession: AF026005.1), whereas SphI was adopted to linearize plasmid PcDNA3 containing Kv1.2 (Accession: NM_012970.3) gene. […] Thereafter, the linearized plasmids were used as the templates to synthesize cRNAs in vitro using the large-scale T7 mMESSAGE mMACHINE transcription kit (Ambion, USA).\n(§2) A mature female X. laevis was placed on the ice for anesthesia, and then the Xenopus laevis oocytes at stage IV-VI were extracted. Subsequently, those extracted oocytes were treated by collagenase (1 mg/mL) contained within the calcium-depleted ND96 solution (containing 96 mM NaCl, 10 mM HEPES, 1 mM MgCl2, and 2 mM KCl) for defolliculation. […]\n(§3) Firstly, the effects of JZTX-X on the isoforms of potassium channels (including Kv1.1-1.3, Kv2.1, as well as Kv4.2-4.3) contained within the X. laevis oocytes were investigated through the microelectrode voltage-clamp approach. […] We also determined the effects of JZTX-X on Ito potassium channels in rat DRG neurons; those current amplitudes were inhibited by 54.4±6.8% when 500 nM JZTX-X was applied (Fig. 3K, n = 5)."}, "[3]": {"tested_on": "Kv1.3", "experiment": "microelectrode voltage-clamp, Xenopus laevis oocytes, Kv1.3", "format": "cell-based", "conditions": "10 μM, 300-ms depolarization to +20 mV from -90 mV, pH 7.5, 19-23°C, n = 3", "method": "as §1, §2, §3"}, "[4]": {"tested_on": "Ito potassium channels", "experiment": "voltage-clamp, Ito potassium currents in rat DRG neurons", "format": "cell-based", "method": "An EPC-10 patch-clamp amplifier (HEKA, Germany) was employed to record the potassium currents at the configuration of whole-cell patch-clamp under an ambient temperature of 22-25°C. The resistance was 2.0-3.0 MΩ when the recording pipette contained a full volume of internal solution (supplemented with 140 mM KCl, 10 mM HEPES, 2.5 mM MgCl2, 5 mM ATP and 11 mM EGTA). KOH was utilized to adjust the pH to 7.2, while sucrose was employed to adjust the osmolarity to 310 mOsm/L. The culture medium was replaced with an external solution containing 150 mM NaCl, 2.5 mM CaCl2, 10 mM HEPES, 2 mM MgCl2, 5 mM KCl, and 10 mM D-glucose. Similarly, sucrose and NaOH were applied to adjust the osmolarity to 330 mOsm/L and pH to 7.4. […] The series resistance was maintained at about 5 MΩ, with 65-70% compensation. Finally, the leakage currents and linear capacitance were subtracted digitally according to the P/4 protocol. […]\nas §3"}, "[5]": {"tested_on": "Kv1.1", "experiment": "microelectrode voltage-clamp, Xenopus laevis oocytes, Kv1.1", "format": "cell-based", "conditions": "10 μM, 300-ms depolarization to +20 mV from -90 mV, pH 7.5, 19-23°C, n = 3", "method": "as §1, §2, §3"}},
  "note": "Where a SMILES comes first, the peptide text is derived from it. Bridges are numbered along the chain shown (N, C = ends).",
  "data": [
    {"smiles": "CC(C)C[C@@H]1NC(=O)[C@H](CCCCN)NC(=O)[C@H](Cc2ccc(O)cc2)NC(=O)[C@@H]2CSSC[C@@H]3NC(=O)[C@H](Cc4ccc(O)cc4)NC(=O)[C@H](Cc4ccccc4)NC(=O)CNC(=O)[C@H](C)NC(=O)[C@H](CSSC[C@H](NC(=O)[C@@H](N)CC(C)C)C(=O)N[C@@H](CO)C(=O)N[C@@H](CCCNC(=N)N)C(=O)N[C@@H](CCC(=O)O)C(=O)NCC(=O)N[C@@H](CCC(=O)O)C(=O)N[C@@H](Cc4ccccc4)C(=O)N2)NC(=O)[C@H](CSSC[C@@H](C(=O)N[C@@H](Cc2ccc(O)cc2)C(=O)N[C@@H](CCCNC(=N)N)C(=O)N[C@@H](CC(N)=O)C(=O)O)NC(=O)[C@H](Cc2c[nH]cn2)NC(=O)[C@H](CC(C)C)NC(=O)[C@H](C(C)C)NC(=O)[C@H](Cc2ccccc2)NC(=O)[C@H](C)NC(=O)[C@H](CCCCN)NC3=O)NC(=O)[C@H](CCCCN)NC(=O)[C@H](CCCNC(=N)N)NC1=O", "note": "[JZTX-X, Jingzhaotoxin-X] (H-LCSREGEFCYKLRKCCAGFYCKAFVLHCYRN-OH; disulfide 2-16, 9-21, 15-28; N-terminus assumed)", "values": [
      {"measurement": "effect on motor coordination", "setting": "[1]; intrathecal and intraplantar", "value": "made no difference to the motor coordination in mice"},
      {"measurement": "time on accelerating rotarod", "setting": "[1]; intraplantar, vehicle 118.8 ± 9.8 s", "value": "113.4 ± 8.3", "unit": "s"},
      {"measurement": "time on accelerating rotarod", "setting": "[1]; intrathecal, vehicle 117.9 ± 7.6 s", "value": "117.5 ± 7.8", "unit": "s"},
      {"measurement": "inhibition of Kv2.1 current", "setting": "[2]", "value": "less than 5%"},
      {"measurement": "inhibition of Kv1.3 current", "setting": "[3]", "value": "less than 5%"},
      {"measurement": "inhibition of Ito current", "setting": "[4]; 500 nM, n = 5", "value": "54.4±6.8", "unit": "%"},
      {"measurement": "IC50", "setting": "[4]; Hill equation fit, n = 6", "value": 386, "unit": "nM"},
      {"measurement": "inhibition of Kv1.1 current", "setting": "[5]", "value": "less than 5%"}
    ]}
  ]
}
